Results taken from patent US9029544B2, “Tricyclic pyridine derivatives, medicaments containing such compounds, their use and process for their preparation” (Boehringer Ingelheim International GmbH, priority 2010, dated 2015).
pIC50: −log10 of the molar value.

These compounds were tested against T1, Recombinant human CETP (Homo sapiens, UniProt P11597) (assay: CETP in vitro assay (fluorometric assay, Roar Biomedical; cholesterol ester transfer from HDL to LDL)). Conditions: recombinant human CETP from CHO cells; 3 hours at 37° C.; fluorescence 485/535 nm; compound concentrations between 1 nM and 30 μM; read-out: IC50 values for inhibition of CETP.
T1 construct: made in house; host or cells: CHO cells (secreted into conditioned medium)
T1 sequence (P11597 18-493): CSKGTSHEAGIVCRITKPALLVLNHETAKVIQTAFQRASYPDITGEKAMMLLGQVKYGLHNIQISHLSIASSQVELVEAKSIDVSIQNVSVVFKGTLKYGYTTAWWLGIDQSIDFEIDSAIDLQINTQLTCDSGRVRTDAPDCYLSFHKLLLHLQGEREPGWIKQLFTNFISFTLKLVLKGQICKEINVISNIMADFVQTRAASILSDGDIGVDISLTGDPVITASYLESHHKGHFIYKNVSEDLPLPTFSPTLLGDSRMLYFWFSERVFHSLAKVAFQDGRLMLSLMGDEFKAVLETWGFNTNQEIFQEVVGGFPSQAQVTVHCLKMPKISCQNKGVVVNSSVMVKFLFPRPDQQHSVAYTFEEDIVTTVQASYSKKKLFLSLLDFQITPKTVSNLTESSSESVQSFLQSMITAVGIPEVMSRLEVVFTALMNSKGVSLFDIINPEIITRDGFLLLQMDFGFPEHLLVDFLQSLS
Format: biochemical
Description: CETP inhibitory activity of compounds of the present invention can be determined in a fluorometric assay purchased from Roar Biomedical, Inc. (New York, N.Y., USA). […] Recombinant human CETP was partially purified from medium conditioned by CETP expressing CHO cells. In a 384 well format 2.5 μl of compound solution in DMSO was combined with 2 μl of donor solution, 2 μl of acceptor solution and 0.8 μl of recombinant human CETP solution in a total volume of 100 μl with assay buffer and incubated for 3 hours at 37° C. The fluorescence intensity was measured at excitation wavelength of 485 nm and emission wavelength of 535 nm. IC50 values are calculated from dose effect curves from compound concentrations between 1 nM and 30 μM.

Structure (SMILES) | pIC50
CC1(C)Cc2nc(C(C)(C)C)c3c(c2[C@@H](O)C1)C1(CCOCC1)O[C@@H]3c1ccc(C(F)(F)F)cc1 [1(80), (3R,9S)-4-tert-butyl-7,7-dimethyl-3-(4-(trifluoromethyl)phenyl)-2′,3′,5′,6,6′,7,8,9-octahydro-3H-spiro[furo[3,4-c]quinoline-1,4′-pyran]-9-ol] | 7.33
CC(C)c1nc2c(c3c1[C@@H](c1ccc(C(F)(F)F)cc1)OC31CCOCC1)[C@@H](O)CC1(CCCC1)C2 [1(57), (3R,9S)-4-isopropyl-7,7-(butan-1,4-diyl)-3-(4-(trifluoromethyl)phenyl)-2′,3′,5′,6,6′,7,8,9-octahydro-3H-spiro[furo[3,4-c]quinoline-1,4′-pyran]-9-ol] | 7.09
COC(C)(C)c1nc2c(c3c1[C@@H](c1ccc(C(F)(F)F)cc1)OC31CCOCC1)[C@@H](O)CC(C)(C)C2 [1(83), (3R,9S)-4-(2-methoxypropan-2-yl)-7,7-dimethyl-3-(4-(trifluoromethyl)phenyl)-2′,3′,5′,6,6′,7,8,9-octahydro-3H-spiro[furo[3,4-c]quinoline-1,4′-pyran]-9-ol] | 7.60
COCc1nc2c(c3c1[C@@H](c1ccc(C(F)(F)F)cc1)OC31CCOCC1)[C@@H](O)CC(C)(C)C2 [1(82), (3R,9S)-4-(methoxymethyl)-7,7-dimethyl-3-(4-(trifluoromethyl)phenyl)-2′,3′,5′,6,6′,7,8,9-octahydro-3H-spiro[furo[3,4-c]quinoline-1,4′-pyran]-9-ol] | 6.10
CC(C)c1nc2c(c3c1[C@@H](c1ccc(C4(C)COC4)cc1)OC31CCOCC1)[C@@H](O)CC(C)(C)C2 [1(64), (3R,9S)-4-isopropyl-7,7-dimethyl-3-(4-(3-methyloxetan-3-yl)phenyl)-2′,3′,5′,6,6′,7,8,9-octahydro-3H-spiro[furo[3,4-c]quinoline-1,4′-pyran]-9-ol] | 7.07
Cc1nc([C@H]2OC3(CCOCC3)c3c2c(C(C)C)nc2c3[C@@H](O)CC(C)(C)C2)sc1C(C)(C)C [1(56), (3S,9S)-3-(5-tert-butyl-4-methylthiazol-2-yl)-4-isopropyl-7,7-dimethyl-2′,3′,5′,6,6′,7,8,9-octahydro-3H-spiro[furo[3,4-c]quinoline-1,4′-pyran]-9-ol] | 6.33
CC(C)c1nc2c(c3c1[C@H](c1ccc(C(F)(F)F)c(F)c1)OC31CCOCC1)[C@@H](O)CC(C)(C)C2 [1(54), (3S,9S)-3-(3-fluoro-4-(trifluoromethyl)phenyl)-4-isopropyl-7,7-dimethyl-2′,3′,5′,6,6′,7,8,9-octahydro-3H-spiro[furo[3,4-c]quinoline-1,4′-pyran]-9-ol] | 5.77
CC(C)Oc1ccc([C@H]2OC3(CCOCC3)c3c2c(C(C)C)nc2c3[C@@H](O)CC(C)(C)C2)cc1 [1(59), (3R,9S)-3-(4-isopropoxyphenyl)-4-isopropyl-7,7-dimethyl-2′,3′,5′,6,6′,7,8,9-octahydro-3H-spiro[furo[3,4-c]quinoline-1,4′-pyran]-9-ol] | 6.61
CC(C)c1nc2c(c3c1[C@@H](c1ccc(C(F)(F)F)cc1)OC31CCOCC1)[C@@H](O)CC1(CCC1)C2 [1(50), (3R,9S)-4-isopropyl-7,7-(propan-1,3-diyl)-3-(4-(trifluoromethyl)phenyl)-2′,3′,5′,6,6′,7,8,9-octahydro-3H-spiro[furo[3,4-c]quinoline-1,4′-pyran]-9-ol] | 8.15
CC(C)c1nc2c(c3c1[C@H](c1ccc(C(F)(F)F)cc1)OC31CCCC1)[C@H](O)CC(C)(C)C2 (single isomer, unassigned) [2 (Diastereomer 1), (3′S,9′R)-4′-isopropyl-7′,7′-dimethyl-3′-(4-(trifluoromethyl)phenyl)-6′,7′,8′,9′-tetrahydro-3′H-spiro[cyclopentane-1,1′-furo[3,4-c]quinolin]-9′-ol] | 6.16
CC(C)c1nc2c(c3c1[C@@H](c1ccc(C(F)(F)F)cn1)OC31CCOCC1)[C@@H](O)CC1(CCC1)C2 [1(49), (3S,9S)-4-isopropyl-7,7-(propan-1,3-diyl)-3-(5-(trifluoromethyl)pyridin-2-yl)-2′,3′,5′,6,6′,7,8,9-octahydro-3H-spiro[furo[3,4-c]quinoline-1,4′-pyran]-9-ol] | 7.43
CC(C)c1nc2c(c3c1[C@@H](c1ccc(C(F)(F)F)c(F)c1)OC31CCOCC1)[C@@H](O)CC(C)(C)C2 [1(53), (3R,9S)-3-(3-fluoro-4-(trifluoromethyl)phenyl)-4-isopropyl-7,7-dimethyl-2′,3′,5′,6,6′,7,8,9-octahydro-3H-spiro[furo[3,4-c]quinoline-1,4′-pyran]-9-ol] | 7.64

More lines, now with the values ahead:

pIC50 | Structure (SMILES)
6.38 | CC(C)c1nc2c(c3c1[C@@H](c1ccc(C(F)(F)F)nc1)OC31CCOCC1)[C@@H](O)CC(C)(C)[C@H]2O [5(5), (3R,6R,9S)-4-isopropyl-7,7-dimethyl-3-(6-(trifluoromethyl)pyridin-3-yl)-2′,3′,5′,6,6′,7,8,9-octahydro-3H-spiro[furo[3,4-c]quinoline-1,4′-pyran]-6,9-diol]
7.62 | CC(C)c1nc2c(c3c1[C@@H](c1ccc(S(F)(F)(F)(F)F)cc1)OC31CCOCC1)[C@@H](O)CC(C)(C)C2 [1(68), (3R,9S)-4-isopropyl-7,7-dimethyl-3-(4-(pentafluorosulfanyl)phenyl)-2′,3′,5′,6,6′,7,8,9-octahydro-3H-spiro[furo[3,4-c]quinoline-1,4′-pyran]-9-ol]
5.92 | O[C@H]1CC2(CCC2)[C@@H](O)c2nc(C3CCOCC3)c3c(c21)C1(CCOCC1)O[C@@H]3c1ccc(C(F)(F)F)cn1 [6(1), (3S,6R,9S)-7,7-(propan-1,3-diyl)-4-(tetrahydro-2H-pyran-4-yl)-3-(5-(trifluoromethyl)pyridin-2-yl)-2′,3′,5′,6,6′,7,8,9-octahydro-3H-spiro[furo[3,4-c]quinoline-1,4′-pyran]-6,9-diol]
7.89 | CC(C)c1nc2c(c3c1[C@@H](c1ccc(C(F)(F)F)nc1)OC31CCOCC1)[C@@H](O)CC1(CCC1)[C@H]2O [Example 5, (3R,6R,9S)-4-isopropyl-7,7-(propan-1,3-diyl)-3-(6-(trifluoromethyl)pyridin-3-yl)-2′,3′,5′,6,6′,7,8,9-octahydro-3H-spiro[furo[3,4-c]quinoline-1,4′-pyran]-6,9-diol]
6.83 | CC1(C)C[C@H](O)c2c(nc(C3CCOCC3)c3c2C2(CCOCC2)O[C@@H]3c2ccc(C(F)(F)F)c(C#N)c2)[C@@H]1O [4(9), 5-((3R,6R,9S)-6,9-dihydroxy-7,7-dimethyl-4-(tetrahydro-2H-pyran-4-yl)-2′,3′,5′,6,6′,7,8,9-octahydro-3H-spiro[furo[3,4-c]quinoline-1,4′-pyran]-3-yl)-2-(trifluoromethyl)benzonitrile]
6.59 | CC1(C)C[C@H](O)c2c(nc(C3CCOCC3)c3c2C2(CCOCC2)O[C@@H]3c2ccc(C(F)(F)F)cc2)[C@@H]1O [4(11), (3R,6R,9S)-7,7-dimethyl-4-(tetrahydro-2H-pyran-4-yl)-3-(4-(trifluoromethyl)phenyl)-2′,3′,5′,6,6′,7,8,9-octahydro-3H-spiro[furo[3,4-c]quinoline-1,4′-pyran]-6,9-diol]
7.00 | CC1(C)Cc2nc(C3CCOCC3)c3c(c2[C@@H](O)C1)C1(CCOCC1)O[C@@H]3c1ccc(C(F)(F)F)c(C#N)c1 [1(74), 5-((3R,9S)-9-hydroxy-7,7-dimethyl-4-(tetrahydro-2H-pyran-4-yl)-2′,3′,5′,6,6′,7,8,9-octahydro-3H-spiro[furo[3,4-c]quinoline-1,4′-pyran]-3-yl)-2-(trifluoromethyl)benzonitrile]
7.85 | CC(C)c1nc2c(c3c1[C@@H](c1ccc(S(F)(F)(F)(F)F)cc1)OC31CCOCC1)[C@@H](O)CC1(CCC1)C2 [1(69), (3R,9S)-4-isopropyl-7,7-(propan-1,3-diyl)-3-(4-(pentafluorosulfanyl)phenyl)-2′,3′,5′,6,6′,7,8,9-octahydro-3H-spiro[furo[3,4-c]quinoline-1,4′-pyran]-9-ol]
7.72 | CC1(C)C[C@H](O)c2c(nc(C3CCOCC3)c3c2C2(CCCC2)O[C@@H]3c2ccc(S(F)(F)(F)(F)F)cc2)[C@@H]1O [4(6), (3′R,6′R,9′S)-7′,7′-dimethyl-4′-(tetrahydro-2H-pyran-4-yl)-3′-(4-(pentafluorosulfanyl)phenyl)-6′,7′,8′,9′-tetrahydro-3′H-spiro[cyclopentane-1,1′-furo[3,4-c]quinoline]-6′,9′-diol]
7.15 | CC1(C)C[C@H](O)c2c(nc(C3CCOCC3)c3c2C2(CCOCC2)O[C@@H]3c2ccc(S(F)(F)(F)(F)F)cc2)[C@@H]1O [4(12), (3R,6R,9S)-7,7-dimethyl-4-(tetrahydro-2H-pyran-4-yl)-3-(4-(pentafluorosulfanyl)phenyl)-2′,3′,5′,6,6′,7,8,9-octahydro-3H-spiro[furo[3,4-c]quinoline-1,4′-pyran]-6,9-diol]
